Patent publication US20230190760A1, “ADVANTAGEOUS THERAPIES FOR DISORDERS MEDIATED BY IKAROS OR AIOLOS” (C4 Therapeutics, Inc., priority 2020, published 2023)

Columns and labels:
[1] = tested on: KARPASS422; test: Anti-proliferative activity, 96 hours
[2] = tested on: 8 multiple myeloma cell lines; test: Growth of 8 multiple myeloma cell lines (CellTiter-Glo, 96 hour); format: cell-based
[3] = tested on: KMM-1; test: Anti-proliferative activity, 96 hours; details: KMM-1, 96 h
[4] = tested on: RPMI-8226 multiple myeloma tumors; details: Combination
Procedure: A xenograft study was conducted in female CB17 SCID mice bearing RPMI-8226 multiple myeloma tumors. Female SCID mice were inoculated subcutaneously in the right flank with 10×10^6 tumors cells in 0.2 mL of PBS supplemented with matrigel (PBS:matrigel=1:1). Tumor volume was measured twice weekly in two dimensions using calipers, and volume was calculated using the formula: (w2×l)/2=mm^3, assuming 1 mg is equivalent to 1 mm^3 of tumor volume. […] Treatment began on Day 0 with established subcutaneous RPMI-8226 tumors with a mean tumor volume (MTV) of 130 mm^3.
All agents were administered to mice bearing RPMI-8226 tumors on day 0 and dosed until an individual moue tumor volume reached or exceeded 1000 mm^3, at which point the mouse was removed from the study and dosing stopped. […] Dexamethasone was dosed IV once a week at 5000 μg/kg and formulated in saline. […] Body weight and MTV were measured on a 2× weekly schedule. The study end point was reaching a TV greater than 1000 mm^3, at which point any mouse with a TV reaching this cut off TV was removed from the study. […] The survival analysis used was Logrank (Mantel-Cox test). Data are expressed as MTV±SEM.

[5] = tested on: activated B-cell DLBCL lines; test: Anti-cancer activity in ABC-DLBCL cell lines; format: cell-based; details: three of six responsive, read-out: mean IC50 amongst the responsive lines
[6] = tested on: IKZF1/3; test: Ex vivo IKZF1/3 degradation in PBMC, cynomolgus monkey; format: cell-based; details: cynomolgus monkey cells
Procedure: (§1) IKZF1/3 are not degraded in mouse cells treated with thalidomide or its IMiD® analogs because of a single amino acid difference in mouse cereblon compared to human cereblon that causes steric hindrance and prevents recruitment of IKZF1/3. Ex vivo studies were performed in peripheral blood cells (PBMC) of mice, rats, dogs, and monkeys to identify relevant species for IND enabling-toxicity studies based on the degree of IKZF1 degradation by Compound 1. IKZF1 was not degraded in mouse or rat cells by Compound 1, thus, while rat could not be considered a pharmacologically relevant species for human risk assessment, it was chosen as the rodent species for toxicological studies because it is widely used in toxicity testing and a substantial historical toxicology database is available. […] Therefore, cynomolgus monkey was chosen for non-rodent toxicological studies.

[7] = tested on: DL-40 ALCL tumors; test: DL-40 ALCL xenograft efficacy (Example 18); format: in vivo, mice; details: PO daily for 21 days
Procedure: A xenograft study was conducted in female NOD SCID mice bearing DL-40 ALCL tumors.
(§2) Data are expressed as MTV±SEM.

[8] = tested on: IKZF1, IKZF3, IRF-1, IRF-4 and Caspase-3; test: KI-JK ALCL tumor protein expression, western blot (Example 20); format: in vivo, mice; details: 100 μg/kg PO
Procedure: A second xenograft study was conducted in female NOD SCID mice bearing KI-JK ALCL tumors. […] Once tumors reached a mean tumor volume (MTV) of 450 mm^3 they were stratified into two groups.
For the vehicle control group, 2 mice were sacrificed, and tumors harvested 24 hours post a single dose. Mice in the Compound 1 group were sampled at 4- and 24-hours post dose a single dose, with two tumors collected per time point. Additional mice were dosed daily for 5 or 7 days with tumor collections 24 hours post last dose, with 2 mice sampled per time point. Tumors were then mechanically homogenized, and protein extracted using RIPA buffer (Sigma Aldrich). Protein concentration was quantified using a Pierce™ BCA Protein Assay Kit, samples were reduced, and equal protein amounts were then loaded onto a western blot gel for analysis. Tumors were analyzed for IKZF1 (Invitrogen, PA5-23728), IKZF3 (CST, 15103), IRF-1 (CST, 8478), IFR-4 (CST, 15106), and Caspase-3 (CST, 9662) expression. […] Data is expressed as percentage of each target in comparison to the target level measured in the vehicle control and normalized to GAPDH levels to control for protein loading. Error bars represent ±SEM values.

[9] = tested on: OPM-2; test: Anti-proliferative activity, 96 hours; details: Homo sapiens, OPM-2, 96 h
[10] = tested on: multiple myeloma cell lines; test: Anti-cancer activity in a panel of multiple myeloma cell lines; format: cell-based; details: eight of twelve were responsive, read-out: mean IC50 among responsive lines
[11] = tested on: DL40; test: Anti-proliferative activity, 96 hours
[12] = molecular target: T1, IKZF1 (Mus musculus, UniProt Q03267); test: Ex vivo IKZF1 degradation in PBMC, mouse; format: cell-based; details: mouse cells
T1 construct: from tissue; host or cells: peripheral blood cells (PBMC) of mice, ex vivo
Procedure: as §1

[13] = tested on: KI-JK ALCL tumors; test: KI-JK ALCL xenograft efficacy (Example 17); format: in vivo, mice; details: 30 or 100 μg/kg PO daily for 21 days
Procedure: A xenograft study was conducted in female NOD SCID mice bearing KI-JK ALCL tumors.
as §2

[14] = tested on: Maver-1; test: Anti-proliferative activity, 96 hours; details: Homo sapiens, Maver1, 96 h
[15] = Plasma PK and interconversion in rat; format: in vivo; details: Compound 1 30 mg/kg PO
Procedure: Compound 1 was administered to a rat at a concentration of 30 mg/kg PO and monkeys at a concentration of either 60 μg/kg or 100 μg/kg PO. At the indicated timepoints shown in FIG. 25A and FIG. 25B, plasma samples were collected and the Cmax, half-life, and AUC0-inf were determined for both Compound 1 and a metabolite of Compound 1, Compound 14. The percent of Compound 14 was also determined (Table 13). PK values dose normalized to 1 mg/kg. FIG. 25A is a graph measuring the concentration of Compound 1 or Compound 14 over the course of 24 hours in monkeys administered 100 μg/kg or 60 μg/kg of Compound 1. FIG. 25B is a graph measuring the concentration of Compound 1 or Compound 14 over the course of 24 hours in a rat administered 30 mg/kg of Compound 1.

[16] = tested on: HH; test: Anti-proliferative activity, 96 hours; details: Homo sapiens
[17] = tested on: MM.1R; test: Anti-proliferative activity, 96 hours
[18] = tested on: REC1 mantle cell lymphoma tumors; test: REC1 mantle cell lymphoma xenograft, balb/c nude mice; format: in vivo
Procedure: A xenograft study was conducted in female balb/c nude mice bearing REC1 mantle cell lymphoma tumors.
Statistical analysis was performed using two-way analysis of variance (ANOVA). Data are expressed as MTV±SEM.

[19] = all eight multiple myeloma cell lines

T1 sequence (Q8C7D2 whole entry partner): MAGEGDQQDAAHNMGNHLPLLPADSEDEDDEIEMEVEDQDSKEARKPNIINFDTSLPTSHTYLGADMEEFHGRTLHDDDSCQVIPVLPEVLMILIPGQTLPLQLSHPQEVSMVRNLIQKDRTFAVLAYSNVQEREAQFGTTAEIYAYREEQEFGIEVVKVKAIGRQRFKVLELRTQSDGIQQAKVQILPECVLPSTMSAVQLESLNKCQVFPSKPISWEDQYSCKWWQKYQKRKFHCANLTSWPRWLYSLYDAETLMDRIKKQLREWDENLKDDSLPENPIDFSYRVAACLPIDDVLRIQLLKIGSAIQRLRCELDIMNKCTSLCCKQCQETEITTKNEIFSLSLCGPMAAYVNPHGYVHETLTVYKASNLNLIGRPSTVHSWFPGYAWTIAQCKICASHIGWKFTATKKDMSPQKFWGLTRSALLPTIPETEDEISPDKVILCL
T1 sequence (Q3U1J4 2-1140 partner limits assumed): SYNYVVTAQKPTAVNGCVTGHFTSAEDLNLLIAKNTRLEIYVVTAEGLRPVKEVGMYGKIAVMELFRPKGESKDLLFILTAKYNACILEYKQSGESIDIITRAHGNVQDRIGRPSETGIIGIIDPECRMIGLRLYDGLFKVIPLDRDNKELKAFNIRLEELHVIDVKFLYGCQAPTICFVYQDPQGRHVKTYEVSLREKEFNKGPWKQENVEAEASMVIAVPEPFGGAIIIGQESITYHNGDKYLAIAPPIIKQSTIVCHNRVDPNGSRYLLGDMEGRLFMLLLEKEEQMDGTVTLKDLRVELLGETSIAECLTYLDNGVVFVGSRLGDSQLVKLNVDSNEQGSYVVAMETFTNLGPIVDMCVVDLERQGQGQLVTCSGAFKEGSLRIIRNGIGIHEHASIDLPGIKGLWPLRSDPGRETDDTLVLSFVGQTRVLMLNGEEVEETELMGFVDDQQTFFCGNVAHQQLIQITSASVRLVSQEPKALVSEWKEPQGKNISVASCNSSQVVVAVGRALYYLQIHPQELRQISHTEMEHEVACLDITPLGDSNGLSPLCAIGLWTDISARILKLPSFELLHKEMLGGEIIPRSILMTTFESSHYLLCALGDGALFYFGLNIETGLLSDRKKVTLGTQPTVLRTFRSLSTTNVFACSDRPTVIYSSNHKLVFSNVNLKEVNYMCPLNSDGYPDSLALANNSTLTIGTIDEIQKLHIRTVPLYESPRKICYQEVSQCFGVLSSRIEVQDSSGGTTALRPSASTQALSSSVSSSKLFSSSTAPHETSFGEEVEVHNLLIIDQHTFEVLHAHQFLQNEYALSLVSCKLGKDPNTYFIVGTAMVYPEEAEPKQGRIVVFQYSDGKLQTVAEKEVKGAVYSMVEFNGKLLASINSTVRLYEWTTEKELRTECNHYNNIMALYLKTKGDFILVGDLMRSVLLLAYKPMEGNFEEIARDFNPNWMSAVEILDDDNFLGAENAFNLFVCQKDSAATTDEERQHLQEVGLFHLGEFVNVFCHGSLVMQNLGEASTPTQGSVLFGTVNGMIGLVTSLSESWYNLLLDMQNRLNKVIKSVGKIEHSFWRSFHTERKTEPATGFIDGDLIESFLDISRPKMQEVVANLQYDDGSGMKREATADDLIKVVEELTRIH
T1 sequence (Q03267 whole entry): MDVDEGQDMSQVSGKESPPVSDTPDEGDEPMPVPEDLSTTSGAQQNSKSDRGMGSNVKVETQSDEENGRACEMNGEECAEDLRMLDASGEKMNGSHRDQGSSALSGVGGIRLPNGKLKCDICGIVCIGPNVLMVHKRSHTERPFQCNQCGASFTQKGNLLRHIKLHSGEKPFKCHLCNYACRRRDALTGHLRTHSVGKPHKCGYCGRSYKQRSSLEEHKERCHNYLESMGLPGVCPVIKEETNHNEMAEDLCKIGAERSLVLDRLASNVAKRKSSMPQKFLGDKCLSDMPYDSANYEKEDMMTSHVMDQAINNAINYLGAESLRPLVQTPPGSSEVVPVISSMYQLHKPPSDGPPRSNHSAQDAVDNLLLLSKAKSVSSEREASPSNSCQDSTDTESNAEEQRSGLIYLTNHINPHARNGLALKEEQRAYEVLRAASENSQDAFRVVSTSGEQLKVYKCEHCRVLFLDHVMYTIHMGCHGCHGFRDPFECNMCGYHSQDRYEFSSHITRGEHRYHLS

O=C1CC[C@H](N2C(=O)c3cccc4c(Cc5ccc(CN6CCOCC6)cc5)ccc2c34)C(=O)N1 (single isomer, unassigned) [Compound 1]
IC50 [1]: 0.189 nM | more potent than pomalidomide ([2]; across a panel of cell lines (FIG. 32)): 2-3 magnitudes | IC50 [2, 19]: < 1 nM | maximal inhibition [2, 19]: greater than 50% | more potent than pomalidomide ([2]; eight multiple myeloma cell lines): 1000 fold | IC50 [3]: 0.059 nM | Median Survival ([4]; Compound 1 10 μg/kg PO daily, Dexamethasone 5000 μg/kg IV once a week): 33 | Statistical Significance Compared to Vehicle ([4]; survival, Logrank, Compound 1 10 μg/kg, Dexamethasone 5000 μg/kg): 0.007 | IC50 [5]: 1.6 nM | degrading IKZF1/3 [6]: highly effective | tumor volume versus pomalidomide [7]: more successful at decreasing tumor volume than pomalidomide | concentration of caspase-3 and IRF-1 [8]: increased | percentage of IKZF1, IKZF3, and IRF-4 [8]: decreased | IC50 [9]: 0.058 nM | IC50 [10]: 0.3 nM | IC50 [11]: 0.91 nM | IKZF1 degradation [12]: not degraded | tumor volume [13]: decreased | IC50 [14]: 12.1 nM | AUC(0-inf) ([15]; dose normalized to 1 mg/kg): 784 ng·h/mL | Cmax ([15]; dose normalized to 1 mg/kg): 110 ng/mL | half-life ([15]; read-out: T ½ (converted)): 2.3 h | IC50 [16]: 58 nM | IC50 [17]: 0.083 nM | Statistical Significance Compared to Vehicle ([18]; 30 μg/kg PO daily): 0.04 | Statistical Significance Compared to Vehicle ([18]; 100 μg/kg PO daily): 0.04 | tumor volume ([18]; Compound 1 10, 30, or 100 μg/kg, pomalidomide 3000 μg/kg, 18 days): decreased
